Test results published in patent publication EP0247971A2, “Novel pharmaceutical compositions comprising and use of cis-6-(4-acetanilido)-8,9-dimethoxy-2-methyl-1,2,3,4,4a,10b-hexahydrobenzo[c][1,6]naphthyridin” (SANDOZ AG, priority 1986, dated 1987).

How the values were obtained:
Format in all cases: in vivo
[1] = system: patients exhibiting bronchial asthma; experiment: Clinical trial A: bronchodilator efficacy compared with placebo and/or Theophylline and with Salbutamol
From the text: Criteria for inclusion are based on medical history and on initial examination. Subjects selected are of either sex, aged between 18 and 60 years, and identified as having a history of bronchial asthma and positive response to inhalation of β2-agonist therapy (e.g. Fenoterol or Salbutamol) or other bronchodilator therapy, e.g. with FEV-1 and/or PEFR increasing by 20% as documented 1 week before commencement of the trial. Baseline of FEV-1 and/or PEFR in each subject entered for the trial should be at least 20% below the predicted value, preferably also at the time of trial. The following exclusion criteria are applied: • - Severe chronic obstructive pulmonary disease, emphysema, active and progressive infection, status asthmaticus during the last 12 months. • - Any serious or chronic illness of the gastrointestinal system, liver or kidneys which may influence absorption, metabolism and excretion of the drugs. • - Diabetes mellitus. • - Any condition which might impair the ability of the physician to evaluate the progress of the patient.
Medication employed for the trial comprises: • A. (±)-COMPOUND (in the form of its bis-hydrogen maleate salt), in dry substance form. For administration the active ingre- ded is dissolved in pharmaceutical grade water, 30 - 60 mins. before ingestion: at a concentration of 1 g/100 ml, for administration at a dosage of 300 mg (30 ml), 200 mg (20 ml) or 100 mg (10 ml); at a concentration of 0.5 g/ 100 ml, for administration at a dosage of 50 mg (10 ml); or at a concentration of 0.25 g/100 ml for administration at a dosage of 25 mg (10 ml). • B. Theophylline solution at a dosage of 150 mg. • C. Placebo - aqueous solution only, no active ingredient. • D. Salbutamol, administered by inhalation in 3 puffs comprising 0.1 mg active ingredient/puff.
The trial is performed for each subject on 2, 3 or more separate days, each trial day being separated by a wash-out period of 3 to 7 days. […]

[2] = system: subjects exhibiting allergic, atopic bronchoconstrictor response; experiment: Clinical trial B: prophylactic efficacy compared with placebo (allergen challenge); settings: vs placebo
Experimental: Suitable individual dosages, e.g. for (i)-COMPOUND as the bis-hydrogen maleate, in such clinical trials comprise e.g. ca. 1 to 25 mg administered by inhalation (for single administration or administration 2 to 3 daily) or ca. 25 to 100 mg orally (for single administration or administration 2 to 3x daily) up to ca. 200 or 300 mg orally (for single administration).
Both acute (0 to 1 hour) and long-term (up to 12 hour) change in lung function is determined post-medication by measurement of parameters (FVC, FEV 1 etc...) as set forth for clinical trial A above.
In addition to monitoring of lung function, blood eosinophil levels are also monitored and the incidence of activated eosinophils and eosinophil secretory proteins is determined. In individual studies, subjects are also subjected to lung lavage and the presence of eosinophils and platelets and their respective secretory products determined before and after exposure to allergen.

Guinea pigs = experiment: Suppression of airways hyperreactivity, sensitised animals (immune complexes); settings: immune-complex treated animals, labelled platelets
From the text: Guinea pigs are anaesthetised and airways resistance and compliance recorded as described under example lb^l above. […] Platelets are isolated and labelled with ^lllindium prior to intravenous infusion. Platelet accumulation is monitored by external crystal detectors [c.f. Morley et al. […] Allergic reaction is initiated by i.v. injection of preformed immune complexes (bovine y-globulin/ anti-bovine y-globulin), using a dose that is scarcely sufficient to induce bronchospasm at the first injection. By repeating the dose at regular (10 min.) intervals, bronchospasm of progressively increasing amplitude is evidenced. This effect is paralleled by an incremental retention of platelets within the airway vasculature. Following the last dose of immune complexes, the dose-effect relationship to histamine is re-defined. In animals so treated, induction of airways hyperreactivity is consistently observed.

asthmatic subjects = experiment: Clinical trial C: prophylactic/bronchodilator efficacy in asthma; settings: additional bronchodilator dosaging on attack
Experimental: Initial dosaging is of the order of from 1 to 100 mg, e.g. from 5 to 50 mg per day, administered once or in divided dosages 2 or 3x daily, for administration by inhalation and of the order of from 25 to 300 mg per day administered once or in divided dosages 2 or 3x daily, for oral administration, with subsequent reduction in appropriate cases to a maintainance dosage of 1 to 50 mg, e.g. from 5 to 25 mg, per day for inhalation or from 25 to 100 or 200 mg per day orally. Administration is suitably effected in divided dosages 2 or 3x daily. During the course of the trial subjects are monitored continually and all relevant parameters recorded including lung function, alterations in the incidence of activated eosinophils or the release of eosinophil products into the blood or bronchial fluids and/or changes in the function of platelets ex vivo and, in particular,-frequency and severity of asthma exacerbation or attack. Additional bronchodilator dosaging may be provided on the occasion of any such attack.

Row | Compound | tolerance (reported side-effects and side-reactions) ([1]; all instances) | results compared with therapy B (Theophylline 150 mg) or D (Salbutamol inhalation) ([1]; higher dosage rates, e.g. of 50 mg or 100 mg and more) | lung-function ([1]; oral 25 to 300 mg, compared with placebo) | bronchorestrictor response to allergen ([2]; ca. 1 to 25 mg by inhalation or ca. 25 to 300 mg orally prior to allergen challenge) | eosinophilic response ([2]; dosages as indicated prior to allergen challenge) | platelet accumulation (Guinea pigs) | results employing COMPOUND at exacerbation or attack (asthmatic subjects)
1 | COc1cc2c(cc1OC)[C@@H]1CN(C)CC[C@@H]1N=C2c1ccc(NC(C)=O)cc1 (racemic) [cis-6-(4-acetanilido)-8,9-dimethoxy-2-methyl-1,2,3,4,4a,10b-hexahydrobenzo[c][1,6]naphthyridin] | well tolerated | approach or are at least comparable | marked improvement | advance protection | reduction |  | 
2 | COc1cc2c(cc1OC)[C@@H]1CN(C)CC[C@@H]1N=C2c1ccc(NC(C)=O)cc1 [COMPOUND, cis-6-(4-acetanilido)-8,9-dimethoxy-2-methyl-1,2,3,4,4a,10b-hexahydrobenzo[c][1,6]naphthyridin] |  |  |  |  |  | No inhibition | symptomatic efficacy
